# Measurements published in ChEMBL document CHEMBL1201862, “PubChem BioAssay data set” (2004).
# Activity calls are given as the source filed them.
# Columns and labels:
# [1] = molecular target: T1, Aminopeptidase N (Plasmodium falciparum FcB1/Columbia, UniProt O96935); experiment: P. falciparum M1AAP inhibitors, biochemical, fluorogenic H-Leu-NHMec substrate, 1536-well (AID 1445); design: species or system Plasmodium falciparum 3D7, 3D7
# T1 sequence (O96935 whole entry): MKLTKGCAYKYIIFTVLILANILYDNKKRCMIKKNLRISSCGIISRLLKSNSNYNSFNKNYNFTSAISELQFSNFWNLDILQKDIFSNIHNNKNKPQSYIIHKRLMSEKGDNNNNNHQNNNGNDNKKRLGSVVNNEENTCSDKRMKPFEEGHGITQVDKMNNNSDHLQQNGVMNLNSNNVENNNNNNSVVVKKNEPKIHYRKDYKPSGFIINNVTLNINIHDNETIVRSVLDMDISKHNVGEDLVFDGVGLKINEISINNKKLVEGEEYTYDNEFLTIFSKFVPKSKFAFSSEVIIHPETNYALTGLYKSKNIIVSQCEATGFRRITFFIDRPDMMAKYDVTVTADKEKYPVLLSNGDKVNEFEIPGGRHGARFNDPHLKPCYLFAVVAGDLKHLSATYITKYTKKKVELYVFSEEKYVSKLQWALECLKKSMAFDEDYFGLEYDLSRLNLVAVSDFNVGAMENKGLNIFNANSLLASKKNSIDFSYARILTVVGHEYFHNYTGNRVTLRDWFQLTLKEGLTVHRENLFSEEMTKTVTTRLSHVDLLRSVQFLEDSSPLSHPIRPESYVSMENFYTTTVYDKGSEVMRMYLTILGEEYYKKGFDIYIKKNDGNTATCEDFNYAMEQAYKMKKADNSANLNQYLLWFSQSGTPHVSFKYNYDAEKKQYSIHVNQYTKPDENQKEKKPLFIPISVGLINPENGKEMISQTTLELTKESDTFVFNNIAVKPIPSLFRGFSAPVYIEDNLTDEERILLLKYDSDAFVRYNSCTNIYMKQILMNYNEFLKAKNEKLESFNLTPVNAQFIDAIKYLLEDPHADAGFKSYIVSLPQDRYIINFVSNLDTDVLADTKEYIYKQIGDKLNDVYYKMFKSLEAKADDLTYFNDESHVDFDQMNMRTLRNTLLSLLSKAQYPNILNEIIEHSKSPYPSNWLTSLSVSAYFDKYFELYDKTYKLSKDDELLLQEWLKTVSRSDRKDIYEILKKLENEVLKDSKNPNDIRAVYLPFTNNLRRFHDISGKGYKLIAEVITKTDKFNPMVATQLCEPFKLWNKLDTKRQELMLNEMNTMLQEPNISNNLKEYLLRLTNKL
# [2] = molecular target: T2, Corticotropin-releasing factor receptor 2/Corticotropin-releasing factor-binding protein (Homo sapiens, UniProt P24387+Q13324); experiment: activators of CRF receptor 2 with binding protein – uHTS hits, confirmation (AID 602473); type: functional; conditions: read-out: EC50_Mean
# T2 sequence (Q13324 whole entry): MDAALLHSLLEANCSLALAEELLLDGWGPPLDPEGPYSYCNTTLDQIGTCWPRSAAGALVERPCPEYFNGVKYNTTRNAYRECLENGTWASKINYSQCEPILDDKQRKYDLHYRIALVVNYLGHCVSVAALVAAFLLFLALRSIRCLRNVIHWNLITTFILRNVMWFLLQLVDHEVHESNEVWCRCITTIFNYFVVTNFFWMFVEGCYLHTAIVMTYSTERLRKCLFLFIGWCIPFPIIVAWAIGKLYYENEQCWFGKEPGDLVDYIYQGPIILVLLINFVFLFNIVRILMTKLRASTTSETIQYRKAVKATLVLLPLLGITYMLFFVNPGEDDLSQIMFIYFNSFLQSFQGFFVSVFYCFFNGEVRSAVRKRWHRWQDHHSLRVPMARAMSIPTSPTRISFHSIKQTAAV
# T2 sequence (P24387 whole entry): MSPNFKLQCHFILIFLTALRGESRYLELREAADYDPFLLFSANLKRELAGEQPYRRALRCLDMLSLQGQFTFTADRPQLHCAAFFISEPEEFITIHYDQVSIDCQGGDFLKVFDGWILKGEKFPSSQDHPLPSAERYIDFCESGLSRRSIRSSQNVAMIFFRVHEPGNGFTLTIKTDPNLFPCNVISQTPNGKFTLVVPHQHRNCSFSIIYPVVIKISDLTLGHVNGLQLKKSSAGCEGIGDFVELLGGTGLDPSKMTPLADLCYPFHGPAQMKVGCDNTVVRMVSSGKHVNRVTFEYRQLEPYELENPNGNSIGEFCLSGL
# [3] = cytotoxicity toward NIH3T3 fibroblasts, dose response, counter-screen, cell-based, ATP luminescence, mouse fibroblasts (AID 2010); type: functional;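 also: cells exposed to compound for about 90 hours before reading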
# [4] = inhibitors of intracellular T. cruzi replication, confirmation, NIH3T3 host cells, beta-gal luminescence (AID 2044); type: functional, cell-based;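 also: intracellular parasites grown in NIH/3T3 mouse fibroblasts as host cells; luminescent beta-galactosidase reporter signal from transgenic T. cruzi replicating inside host cells; inhibitors lower the luminescence signal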
# [5] = Luminescence Cell-Based Dose Retest to Confirm Inhibitors of Cancer Stem Cells. [Related pubchem assays (depositor defined):AID2717, AID2721]; type: functional; conditions: Homo sapiens
# [6] = tested on: INS1; experiment: beta cell apoptosis inhibitors, cytokine rescue, dose response, luminescence, retest (AID 449756); type: functional, cell-based; conditions: Rattus norvegicus;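 also: cell death triggered by IL-1 beta plus TNF-alpha plus IFN-gamma mixture; protective hits raise ATP signal compared with cytokine alone wells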
# [7] = molecular target: T3, Ubiquitin-conjugating enzyme E2 N (Homo sapiens, UniProt P61088); type: functional;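 also: Dose-response confirmation in a TR-FRET assay detecting UBC13-driven polyubiquitin chain formation, inhibition measured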
# T3 sequence (P61088 whole entry): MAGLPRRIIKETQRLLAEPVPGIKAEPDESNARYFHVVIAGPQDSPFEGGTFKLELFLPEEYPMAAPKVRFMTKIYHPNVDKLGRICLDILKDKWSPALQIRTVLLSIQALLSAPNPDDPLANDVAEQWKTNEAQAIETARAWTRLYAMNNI
# [8] = molecular target: T4, Protein RecA (Mycobacterium tuberculosis, UniProt P9WHJ3); experiment: Fluorescence Cell-Free Homogeneous Dose Retest to Identify Inhibitors of RecA-Intein Splicing Activity. [Related pubchem assays (depositor defined):AID2097, AID2223, AID489010, AID492950]; type: functional
# T4 sequence (P9WHJ3 whole entry): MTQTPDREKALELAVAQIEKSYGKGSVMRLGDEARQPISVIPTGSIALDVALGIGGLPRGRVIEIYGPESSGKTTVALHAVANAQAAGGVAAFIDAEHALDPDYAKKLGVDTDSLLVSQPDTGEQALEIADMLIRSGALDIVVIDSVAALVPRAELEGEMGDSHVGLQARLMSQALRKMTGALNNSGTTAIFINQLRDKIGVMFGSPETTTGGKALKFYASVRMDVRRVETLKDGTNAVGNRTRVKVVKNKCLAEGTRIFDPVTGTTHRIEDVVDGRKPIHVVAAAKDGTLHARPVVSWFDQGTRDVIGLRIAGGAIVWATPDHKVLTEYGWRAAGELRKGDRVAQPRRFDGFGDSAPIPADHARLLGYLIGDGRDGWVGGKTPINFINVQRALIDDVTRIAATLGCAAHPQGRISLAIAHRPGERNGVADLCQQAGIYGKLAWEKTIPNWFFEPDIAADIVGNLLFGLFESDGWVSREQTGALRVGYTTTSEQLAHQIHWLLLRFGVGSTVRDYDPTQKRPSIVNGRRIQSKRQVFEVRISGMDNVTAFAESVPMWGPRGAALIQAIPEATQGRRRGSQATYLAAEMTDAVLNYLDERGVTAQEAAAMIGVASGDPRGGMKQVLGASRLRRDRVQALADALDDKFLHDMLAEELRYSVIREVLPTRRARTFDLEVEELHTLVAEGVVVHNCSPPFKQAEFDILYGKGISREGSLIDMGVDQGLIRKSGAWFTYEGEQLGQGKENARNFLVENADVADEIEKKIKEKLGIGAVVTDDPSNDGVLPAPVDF
# [9] = molecular target: T5, RNA-binding protein pos-1 (Caenorhabditis elegans, UniProt G5EF15); experiment: inhibitors of POS-1/mex-3 RNA binding, dose response, biochemical, fluorescence polarization (AID 1964);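 also: purified POS-1 fused to maltose binding protein made in E. coli; potency of compounds blocking POS-1 binding to fluorescent RNA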
# T5 sequence (G5EF15 whole entry): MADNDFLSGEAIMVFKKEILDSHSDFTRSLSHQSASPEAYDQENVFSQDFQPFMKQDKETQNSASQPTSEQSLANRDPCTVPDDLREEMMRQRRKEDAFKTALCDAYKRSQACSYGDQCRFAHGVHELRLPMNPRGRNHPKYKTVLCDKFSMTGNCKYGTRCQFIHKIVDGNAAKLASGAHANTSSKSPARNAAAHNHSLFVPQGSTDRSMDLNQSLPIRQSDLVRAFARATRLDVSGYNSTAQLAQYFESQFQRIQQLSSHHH
# [10] = molecular target: T6, Zinc finger protein mex-5 (Caenorhabditis elegans, UniProt Q9XUB2); experiment: MEX-5/TCR-2 RNA interaction inhibitors, dose response, biochemical, C. elegans, fluorescence polarization (AID 1960)
# T6 sequence (Q9XUB2 whole entry): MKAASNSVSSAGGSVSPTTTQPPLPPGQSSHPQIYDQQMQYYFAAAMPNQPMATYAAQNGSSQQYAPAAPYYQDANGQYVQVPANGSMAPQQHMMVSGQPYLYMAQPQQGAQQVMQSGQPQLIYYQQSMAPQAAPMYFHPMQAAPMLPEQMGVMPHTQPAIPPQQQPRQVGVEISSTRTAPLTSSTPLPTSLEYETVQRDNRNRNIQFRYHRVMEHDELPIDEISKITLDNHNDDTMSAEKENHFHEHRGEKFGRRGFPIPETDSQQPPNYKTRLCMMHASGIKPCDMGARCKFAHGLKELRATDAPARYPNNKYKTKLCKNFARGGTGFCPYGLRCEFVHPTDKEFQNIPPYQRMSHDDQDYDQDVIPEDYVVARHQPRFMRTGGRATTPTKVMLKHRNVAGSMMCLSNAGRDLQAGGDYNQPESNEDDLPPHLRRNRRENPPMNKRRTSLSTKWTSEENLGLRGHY
# [11] = molecular target: T7, Replicative DNA helicase DnaB (Mycobacterium tuberculosis, UniProt P9WMR3); experiment: DnaB intein splicing inhibitors, dose response, biochemical, cell-free fluorescence (AID 449749); type: functional
# T7 sequence (P9WMR3 whole entry): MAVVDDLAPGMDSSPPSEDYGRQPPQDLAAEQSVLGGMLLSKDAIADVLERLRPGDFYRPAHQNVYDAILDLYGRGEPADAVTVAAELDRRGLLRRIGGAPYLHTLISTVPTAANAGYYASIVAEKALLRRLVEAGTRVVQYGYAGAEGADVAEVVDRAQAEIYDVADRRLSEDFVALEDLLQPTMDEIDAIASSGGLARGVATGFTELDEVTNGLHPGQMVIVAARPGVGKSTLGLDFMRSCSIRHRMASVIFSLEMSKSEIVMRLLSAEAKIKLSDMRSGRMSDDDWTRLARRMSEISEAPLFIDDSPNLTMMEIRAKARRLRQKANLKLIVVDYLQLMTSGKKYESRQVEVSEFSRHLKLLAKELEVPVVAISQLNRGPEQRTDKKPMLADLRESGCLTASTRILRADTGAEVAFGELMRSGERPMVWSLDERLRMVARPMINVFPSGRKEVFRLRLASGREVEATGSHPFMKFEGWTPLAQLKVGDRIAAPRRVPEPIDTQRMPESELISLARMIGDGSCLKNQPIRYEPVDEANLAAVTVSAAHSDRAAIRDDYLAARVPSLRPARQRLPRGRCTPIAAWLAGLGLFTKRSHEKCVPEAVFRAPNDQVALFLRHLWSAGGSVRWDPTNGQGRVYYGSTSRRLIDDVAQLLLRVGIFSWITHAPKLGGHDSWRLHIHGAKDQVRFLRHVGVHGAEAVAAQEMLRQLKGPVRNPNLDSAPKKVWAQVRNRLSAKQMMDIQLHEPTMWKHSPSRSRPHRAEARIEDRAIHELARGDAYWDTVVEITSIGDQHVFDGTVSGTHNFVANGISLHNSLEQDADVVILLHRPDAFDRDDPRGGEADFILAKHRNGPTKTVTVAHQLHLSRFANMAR
# [12] = tested on: SN12K1; experiment: cells; type: functional; conditions: Homo sapiens
# [13] = tested on: P388; experiment: cells; type: functional; conditions: Mus musculus
# [14] = tested on: P388/ADR; experiment: cells; type: functional; conditions: Mus musculus
smiles,measurement,setting,value
COc1cc(/C=C2\C(=N)N3C(=NC2=O)Sc2cc(S(C)(=O)=O)ccc23)ccc1O,IC50,[1],45.7 µM (active)
same,EC50,[2],5.19 µM (active)
CCCOc1ccc(C(C)=O)cc1CSc1nc(O)cc(=O)[nH]1,IC50,[1],109 µM (active)
O=C(NC(NC(=S)Nc1ccccc1)C(Cl)(Cl)Cl)c1cccc(Cl)c1 (configuration not stated),EC50,[3],> 60 µM (not active)
same,EC50,[4],2.31 µM (active)
same,AC50,[5],4.73 µM (active)
same,AC50,[6],8.54 µM (active)
CCn1c(=O)cc(C(F)(F)F)[nH]c1=S,IC50,[7],> 20 µM (inactive)
CCOC(=O)C1=C(Nc2ccccc2)S/C(=C\c2ccc(OCC(=O)O)c(OCC)c2)C1=O,IC50,[1],60.2 µM (active)
O=C(COc1ccccc1/C=C1\SC(=O)NC1=O)Nc1ccccc1,IC50,[1],32.6 µM (active)
COc1ccc(OC)c(NC(=O)C2C3C=CC(C3)C2C(=O)NCc2cccnc2)c1 (configuration not stated),IC50,[1],48.2 µM (active)
Cc1[nH][nH]c(=O)c1C(c1cc([N+](=O)[O-])ccc1O)c1c(C)[nH][nH]c1=O,IC50,[1],30.1 µM (active)
same,EC50,[8],0.262 µM (active)
same,EC50,[9],64.5 µM (active)
same,EC50,[10],16.7 µM (active)
same,AC50,[11],0.399 µM (active)
Cc1ccc(C(C(=O)NCC2CCCO2)N(C(=O)c2snc(C(N)=O)c2N)c2ccccc2F)o1 (configuration not stated),IC50,[7],> 20 µM (inactive)
O=c1c2cc(Br)ccc2[nH]c(=S)n1-c1ccccc1,IC50,[7],> 20 µM (inactive)
CCN1CCN(S(=O)(=O)c2ccc(Cl)c(C(=O)N(C)Cc3cccs3)c2)CC1,IC50,[7],> 20 µM (inactive)
CCCCCOc1ccc(/C=N\c2ccc(CCc3ccc(/N=C/c4ccc(OCCCCC)cc4)cc3)cc2)cc1,GI50,[12],> 100 µM (inactive)
same,GI50,[13],> 100 µM (inactive)
C=C(C)C(=O)/N=C(\N)NC#N,GI50,[14],10.4 µM (inactive)
same,GI50,[12],26.4 µM (inactive)
same,GI50,[13],3.72 µM (inactive)
CSC[S+]([O-])C[C@H](CO)NC(=O)/C=C/c1c(C)[nH]c(=O)[nH]c1=O (some centres not stated),GI50,[14],1 µM (active)
same,GI50,[12],1.31 µM (inactive)
same,GI50,[13],0.416 µM (active)
